Article PMC10062662, “Quantitative determination of lurbinectedin, its unbound fraction and its metabolites in human plasma utilizing ultra-performance LC–MS/MS” (PLOS ONE, 2023)
Like-named read-outs stand apart in the source and are kept apart here. One block for each compound: values may come before it.

Key:
[1] = Stability in human K3-EDTA plasma under different test conditions; format: in vitro ADME
Experimental: Likewise, a wide range of long-term stability tests reflecting the sort of real-world storage issues that can occur in hospital-based clinical studies (e.g., short-term storage at -20°C before transfer to -80°C, availability of -60°C but not -80°C), was evaluated to ensure plasma samples are analyzed before degradation can occur. Therefore, the following plasma stability tests were performed: room temperature, freeze thaw (one cycle consisted of 2 hours at room temperature followed by freezing for at least 12 hours at -80°C ± 10°C) and long-term (at -20°C ± 5°C, -60°C ± 10°C and -80°C ± 10°C). For each stability test, two concentrations (LQC and HQC) and six replicates per level were analyzed. For acceptance criteria, the precision (%CV) was ≤15% and the bias when compared with the nominal concentration was ±15%. […]

[2] = format: in vitro ADME; conditions: human, 120 min, 10 ng/mL
Experimental: To ensure correct sample collection during the clinical trial procedures, whole-blood (using K3-EDTA as anticoagulant) stability was studied by spiking the blood (lurbinectedin at 20 ng/mL and M4 and M6 at 10 ng/mL). Aliquots of the whole blood were then centrifuged at 4°C for 0, 30, 60, 90 and 120 minutes post equilibration (15 minutes at 37°C) to produce plasma, which was then frozen prior to analysis. This was performed at room temperature (and in an ice bath for lurbinectedin). The derived plasma samples were analyzed in triplicate, and the criterion for acceptance was defined as having a response within ±15% of the zero-minute sample.

[3] = Chemical stability of M4 reference standard on isolation; format: physicochemical; conditions: column chromatography on silica gel or reversed-phase chromatography
Experimental: The chemical synthesis of the reference standard for M4 was not feasible. […] Therefore, M4 and M4-d4 solutions were biosynthetically obtained following the incubation of lurbinectedin and PM040038, respectively, in liver microsomes according to a three-step method described elsewhere.

[4] = design: method as in PMID 35042701; conditions: patients, radio-labeled lurbinectedin mass balance study; cited from earlier work
[5] = design: method as in PMID 35042701; conditions: NHPs; cited from earlier work
[6] = Stability of stock and working solutions at -20°C; format: physicochemical; conditions: 1 mg/mL in DMSO, -20°C ±5°C
Experimental: The stability of stock and working solutions, as well the stability of IS stock solution, following storage at -20°C ±5°C were investigated by concordance verification by comparing the stored solution against a freshly prepared one.

[7] = 5 freeze-thaw cycles, nom. conc. 1.5 ng/mL
[8] = 5 freeze-thaw cycles, nom. conc. 16 ng/mL
[9] = -80°C ±10°C, 197 days, nom. conc. 1.5 ng/mL
[10] = -80°C ±10°C, 197 days, nom. conc. 16 ng/mL
[11] = Ambient, 6 hours, nom. conc. 1.5 ng/mL
[12] = Ambient, 6 hours, nom. conc. 16 ng/mL
[13] = -80°C ±10°C, 237 days, nom. conc. 1.5 ng/mL
[14] = -80°C ±10°C, 237 days, nom. conc. 16 ng/mL
[15] = Ambient, 21.8 hours, nom. conc. 1.5 ng/mL
[16] = Ambient, 21.8 hours, nom. conc. 16 ng/mL

SMILES: COc1ccc2[nH]c3c(c2c1)CCN[C@]31CS[C@@H]2c3c(OC(C)=O)c(C)c(O)c(O)c3[C@H](COC1=O)N1[C@@H]2[C@H]2c3c(cc(C)c(OC)c3O)C[C@@H]([C@@H]1O)N2C [M4, 1′,3′-dihydroxy-lurbinectedin]
- Bias [1, 7]: 5%
- Measured conc. [1, 7]: 1.58 ng/mL
- Bias [1, 8]: -3%
- Measured conc. [1, 8]: 15.6 ng/mL
- Bias [1, 9]: 3%
- Measured conc. [1, 9]: 1.54 ng/mL
- Bias [1, 10]: -1%
- Measured conc. [1, 10]: 15.8 ng/mL
- Bias [1, 11]: -7%
- Measured conc. [1, 11]: 1.40 ng/mL
- Bias [1, 12]: -14%
- Measured conc. [1, 12]: 13.7 ng/mL
- difference in concentration from time zero to 120 minutes [2]: -3%
- stability on isolation by conventional methods [3]: too unstable to be isolated
- circulating metabolite in plasma, % compared with parent compound [4]: 14.3%
- circulating metabolite in plasma, % compared with parent compound [5]: 0.9%

SMILES: COc1ccc2[nH]c3c(c2c1)CCN[C@]31CS[C@@H]2c3c(OC(C)=O)c(C)c4c(c3[C@H](COC1=O)N1[C@@H]2[C@@H]2N[C@@H](Cc3cc(C)c(OC)c(O)c32)[C@@H]1O)OCO4 [M6, N-desmethyl-lurbinectedin]
- Bias [1, 7]: 13%
- Measured conc. [1, 7]: 1.69 ng/mL
- Bias [1, 8]: 14%
- Measured conc. [1, 8]: 18.2 ng/mL
- Bias [1, 13]: 13%
- Measured conc. [1, 13]: 1.70 ng/mL
- Bias [1, 14]: 15%
- Measured conc. [1, 14]: 18.4 ng/mL
- Bias [1, 15]: 5%
- Measured conc. [1, 15]: 1.58 ng/mL
- Bias [1, 16]: 5%
- Measured conc. [1, 16]: 16.8 ng/mL
- difference in concentration from time zero to 120 minutes [2]: -8%
- stability of stock solution in DMSO [6]: ≥ 28 days
- circulating metabolite in plasma, % compared with parent compound [4]: 10.4%
- circulating metabolite in plasma, % compared with parent compound [5]: 0.4%

- stability of stock solution in DMSO [6]: ≥ 36 days
SMILES: [2H]C1([2H])N[C@]2(CS[C@@H]3c4c(OC(C)=O)c(C)c5c(c4[C@H](COC2=O)N2[C@@H]3[C@H]3c4c(cc(C)c(OC)c4O)C[C@@H]([C@@H]2O)N3C)OCO5)c2[nH]c3ccc(OC)cc3c2C1([2H])[2H] [PM040038]

SMILES: [2H]C1([2H])N[C@]2(CS[C@@H]3c4c(OC(C)=O)c(C)c5c(c4[C@H](COC2=O)N2[C@@H]3[C@@H]3N[C@@H](Cc4cc(C)c(OC)c(O)c43)[C@@H]2O)OCO5)c2[nH]c3ccc(OC)cc3c2C1([2H])[2H] [PM190539, N-Desmethyl-lurbinectedin-d4]
- stability of stock solution in DMSO [6]: ≥ 28 days
